Assay results: US20170233413A1, “SUBSTITUTED ANNULATED PYRIMIDINES AND USE THEREOF” (Bayer Pharma Aktiengesellschaft, priority 2014, published 2017)

Legend:
[1] = target: T1, human phosphodiesterase 5 (PDE 5) (Homo sapiens, UniProt O76074); assay: Inhibition of human phosphodiesterase 5 (PDE 5); assay type: biochemical; conditions: PDE 5 preparation from human platelets; in some cases means of individual determinations
T1 construct: PDE 5 preparations are obtained from human platelets by disruption; from tissue; host or cells: human platelets
Protocol: B-3. Inhibition of Human Phosphodiesterase 5 (PDE 5)
PDE 5 preparations are obtained from human platelets by disruption (Microfluidizer®, 800 bar, 3 passes), followed by centrifugation (75 000 g, 60 min, 4° C.) and ion exchange chromatography of the supernatant on a Mono Q 10/10 column (linear sodium chloride gradient, elution with a 0.2-0.3M solution of sodium chloride in buffer (20 mM Hepes pH 7.2, 2 mM magnesium chloride). Fractions having PDE 5 activity are combined (PDE 5 preparation) and stored at −80° C.
To determine their in vitro action on human PDE 5, the test substances are dissolved in 100% DMSO and serially diluted. Typically, dilution series (1:3) from 200 μM to 0.091 μM are prepared (resulting final concentrations in the test: 4 μM to 0.0018 μM). In each case 2 μl of the diluted substance solutions are placed into the wells of microtitre plates (Isoplate-96/200W; Perkin Elmer). Subsequently, 50 μl of a dilution of the above-described PDE 5 preparation are added. The dilution of the PDE 5 preparation is chosen such that during the later incubation less than 70% of the substrate are converted (typical dilution: 1:100; dilution buffer: 50 mM tris/hydrochloric acid pH 7.5, 8.3 mM magnesium chloride, 1.7 mM EDTA, 0.2% BSA). The substrate, [8-^3H] cyclic guanosine-3′,5′-monophosphate (1 μCi/μl; Perkin Elmer), is diluted 1:2000 with assay buffer (50 mM tris/hydrochloric acid pH 7.5, 8.3 mM magnesium chloride, 1.7 mM EDTA) to a concentration of 0.0005 μCi/μl. By addition of 50 μl (0.025 μCi) of the diluted substrate, the enzyme reaction is finally started. The test mixtures are incubated at room temperature for 60 min and the reaction is stopped by adding 25 μl of a suspension of 18 mg/ml yttrium scintillation proximity beads in water (phosphodiesterase beads for SPA assays, RPNQ 0150, Perkin Elmer). The microtitre plates are sealed with a film and left to stand at room temperature for 60 min. Subsequently, the plates are analysed for 30 s per well in a Microbeta scintillation counter (Perkin Elmer). IC50 values are determined using the graphic plot of the substance concentration against percentage PDE 5 inhibition.

[2] = target: T2, recombinant guanylate cyclase reporter cell line (Rattus norvegicus, UniProt P19686+P20595); assay: Effect on a recombinant guanylate cyclase reporter cell line; assay type: cell-based; conditions: MEC = minimum effective concentration; in some cases means of individual determinations
T2 construct: expressed in transfected cells
T2 sequence (P19686 1-690): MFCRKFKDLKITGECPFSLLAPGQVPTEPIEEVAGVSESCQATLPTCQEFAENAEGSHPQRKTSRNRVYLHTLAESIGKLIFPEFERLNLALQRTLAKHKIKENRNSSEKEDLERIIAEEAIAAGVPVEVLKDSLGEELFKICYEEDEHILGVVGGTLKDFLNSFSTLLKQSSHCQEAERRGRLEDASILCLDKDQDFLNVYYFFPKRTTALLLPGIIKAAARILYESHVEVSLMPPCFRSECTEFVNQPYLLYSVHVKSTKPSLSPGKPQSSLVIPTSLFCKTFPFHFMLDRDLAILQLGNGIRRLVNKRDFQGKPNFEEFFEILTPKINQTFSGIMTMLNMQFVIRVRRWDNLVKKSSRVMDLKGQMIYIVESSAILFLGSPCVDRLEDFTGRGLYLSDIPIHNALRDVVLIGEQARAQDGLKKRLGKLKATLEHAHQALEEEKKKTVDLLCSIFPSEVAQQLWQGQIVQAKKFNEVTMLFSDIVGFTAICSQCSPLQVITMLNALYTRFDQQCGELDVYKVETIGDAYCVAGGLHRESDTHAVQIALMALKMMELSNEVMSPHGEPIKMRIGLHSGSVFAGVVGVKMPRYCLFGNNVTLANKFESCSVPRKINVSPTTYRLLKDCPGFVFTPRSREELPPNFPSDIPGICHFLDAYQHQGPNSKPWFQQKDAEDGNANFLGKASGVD
T2 sequence (P20595 1-619): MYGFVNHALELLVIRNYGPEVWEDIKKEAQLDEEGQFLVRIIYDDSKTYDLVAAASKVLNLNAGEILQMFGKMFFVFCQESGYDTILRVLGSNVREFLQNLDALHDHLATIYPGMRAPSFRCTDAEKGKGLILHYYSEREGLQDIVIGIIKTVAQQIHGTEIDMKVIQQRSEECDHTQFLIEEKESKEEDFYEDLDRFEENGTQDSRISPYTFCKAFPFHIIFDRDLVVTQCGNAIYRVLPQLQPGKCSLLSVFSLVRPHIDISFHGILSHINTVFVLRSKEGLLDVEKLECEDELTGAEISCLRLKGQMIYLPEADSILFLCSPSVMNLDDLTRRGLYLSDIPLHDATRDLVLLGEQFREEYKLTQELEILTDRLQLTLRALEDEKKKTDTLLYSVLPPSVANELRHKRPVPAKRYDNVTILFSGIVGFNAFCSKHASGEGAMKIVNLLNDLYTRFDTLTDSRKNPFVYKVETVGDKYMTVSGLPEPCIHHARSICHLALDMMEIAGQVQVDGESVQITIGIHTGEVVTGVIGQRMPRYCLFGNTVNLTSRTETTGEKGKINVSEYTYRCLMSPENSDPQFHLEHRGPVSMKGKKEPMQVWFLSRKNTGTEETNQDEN
Protocol: B-2. Effect on a Recombinant Guanylate Cyclase Reporter Cell Line
The cellular activity of the compounds of the invention is determined using a recombinant guanylate cyclase reporter cell line, as described in F. Wunder et al., Anal. Biochem. 2005, 339, 104-112. Representative values (MEC=minimum effective concentration) for the compounds of the invention are shown in the table below (Table 1B; in some cases as means of individual determinations): […]

Compound | IC50 [1] [µM] | MEC [2] [µM]
Cc1nc2c(cc1F)c(-c1nc3c(c(C(N)=O)n1)C(C)(C(F)(F)F)C(=O)N3)nn2Cc1cccc(F)c1F (single isomer, unassigned; ent-2) [Example 10, ent-2-[1-(2,3-Difluorobenzyl)-5-fluoro-6-methyl-1H-pyrazolo[3,4-b]pyridin-3-yl]-5-methyl-6-oxo-5-(trifluoromethyl)-6,7-dihydro-5H-pyrrolo[2,3-d]pyrimidine-4-carboxamide (enantiomer A)] | 0.11 | 0.3
Cc1nc2c(cc1F)c(-c1nc3c(c(C(N)=O)n1)C(C)(C(F)(F)F)C(=O)N3)nn2Cc1cccc(F)c1F (single isomer, unassigned; ent-2) [Example 11, ent-2-[1-(2,3-Difluorobenzyl)-5-fluoro-6-methyl-1H-pyrazolo[3,4-b]pyridin-3-yl]-5-methyl-6-oxo-5-(trifluoromethyl)-6,7-dihydro-5H-pyrrolo[2,3-d]pyrimidine-4-carboxamide (enantiomer B)] | 0.091 | 0.1
Cc1nc2c(cc1F)c(-c1nc3c(c(C(N)=O)n1)C(C)(C(F)(F)F)C(=O)N3)nn2Cc1ccccc1F (single isomer, unassigned; ent-2) [Example 13, ent-2-[5-fluoro-1-(2-fluorobenzyl)-6-methyl-1H-pyrazolo[3,4-b]pyridin-3-yl]-5-methyl-6-oxo-5-(trifluoromethyl)-6,7-dihydro-5H-pyrrolo[2,3-d]pyrimidine-4-carboxamide (enantiomer A)] | 0.6 | 0.1
Cc1nc2c(cc1F)c(-c1nc3c(c(C(N)=O)n1)C(C)(C(F)(F)F)C(=O)N3)nn2Cc1ccccc1F (single isomer, unassigned; ent-2) [Example 14, ent-2-[5-fluoro-1-(2-fluorobenzyl)-6-methyl-1H-pyrazolo[3,4-b]pyridin-3-yl]-5-methyl-6-oxo-5-(trifluoromethyl)-6,7-dihydro-5H-pyrrolo[2,3-d]pyrimidine-4-carboxamide (enantiomer B)] | 0.13 | 0.03
Cc1nc2c(cc1F)c(-c1nc3c(c(C(N)=O)n1)C(C)(C(F)(F)F)C(=O)N3)nn2Cc1c(F)ccc(F)c1F (single isomer, unassigned; ent-2) [Example 16, ent-2-[5-Fluoro-6-methyl-1-(2,3,6-trifluorobenzyl)-1H-pyrazolo[3,4-b]pyridin-3-yl]-5-methyl-6-oxo-5-(trifluoromethyl)-6,7-dihydro-5H-pyrrolo[2,3-d]pyrimidine-4-carboxamide (enantiomer A)] | 0.17 | 0.17
Cc1nc2c(cc1F)c(-c1nc3c(c(C(N)=O)n1)C(C)(C(F)(F)F)C(=O)N3)nn2Cc1c(F)ccc(F)c1F (single isomer, unassigned; ent-2) [Example 17, ent-2-[5-Fluoro-6-methyl-1-(2,3,6-trifluorobenzyl)-1H-pyrazolo[3,4-b]pyridin-3-yl]-5-methyl-6-oxo-5-(trifluoromethyl)-6,7-dihydro-5H-pyrrolo[2,3-d]pyrimidine-4-carboxamide (enantiomer B)] | 0.28 | 0.03
Cc1nc2c(cc1F)c(-c1nc3c(c(C(N)=O)n1)C(C)(C(F)(F)F)C(=O)N3)nn2Cc1ncccc1F (single isomer, unassigned; ent-2) [Example 19, ent-2-{5-Fluoro-1-[(3-fluoropyridin-2-yl)methyl]-6-methyl-1H-pyrazolo[3,4-b]pyridin-3-yl}-5-methyl-6-oxo-5-(trifluoromethyl)-6,7-dihydro-5H-pyrrolo[2,3-d]pyrimidine-4-carboxamide (enantiomer A)] | 0.22 | 10
Cc1nc2c(cc1F)c(-c1nc3c(c(C(N)=O)n1)C(C)(C(F)(F)F)C(=O)N3)nn2Cc1ncccc1F (single isomer, unassigned; ent-2) [Example 20, ent-2-{5-Fluoro-1-[(3-fluoropyridin-2-yl)methyl]-6-methyl-1H-pyrazolo[3,4-b]pyridin-3-yl}-5-methyl-6-oxo-5-(trifluoromethyl)-6,7-dihydro-5H-pyrrolo[2,3-d]pyrimidine-4-carboxamide (enantiomer B)] | 0.19 | 1
CC1(C(F)(F)F)C(=O)Nc2nc(-c3nn(Cc4ncccc4F)c4ncc(F)cc34)nc(C(N)=O)c21 (single isomer, unassigned; ent-2) [Example 22, ent-2-{5-Fluoro-1-[(3-fluoropyridin-2-yl)methyl]-1H-pyrazolo[3,4-b]pyridin-3-yl}-5-methyl-6-oxo-5-(trifluoromethyl)-6,7-dihydro-5H-pyrrolo[2,3-d]pyrimidine-4-carboxamide (enantiomer A)] | 0.17 | 2
CC1(C(F)(F)F)C(=O)Nc2nc(-c3nn(Cc4ncccc4F)c4ncc(F)cc34)nc(C(N)=O)c21 (single isomer, unassigned; ent-2) [Example 23, ent-2-{5-Fluoro-1-[(3-fluoropyridin-2-yl)methyl]-1H-pyrazolo[3,4-b]pyridin-3-yl}-5-methyl-6-oxo-5-(trifluoromethyl)-6,7-dihydro-5H-pyrrolo[2,3-d]pyrimidine-4-carboxamide (enantiomer B)] | 1.3 | 6.5
CC1(C)C(=O)Nc2nc(-c3nn(Cc4ccccc4F)c4ncccc34)nc(C(N)=O)c21 [Example 1, 2-[1-(2-Fluorobenzyl)-1H-pyrazolo[3,4-b]pyridin-3-yl]-5,5-dimethyl-6-oxo-6,7-dihydro-5H-pyrrolo[2,3-d]pyrimidine-4-carboxamide] | 0.02 | 0.065
CC1(C)C(=O)Nc2nc(-c3nn(Cc4ccccc4F)c4ncc(F)cc34)nc(C(N)=O)c21 [Example 2, 2-[5-Fluoro-1-(2-fluorobenzyl)-1H-pyrazolo[3,4-b]pyridin-3-yl]-5,5-dimethyl-6-oxo-6,7-dihydro-5H-pyrrolo[2,3-d]pyrimidine-4-carboxamide] | 0.013 | 0.03
CC1(C)C(=O)Nc2nc(-c3nn(Cc4ccccc4F)c4cc(Cl)ccc34)nc(C(N)=O)c21 [Example 3, 2-[6-Chloro-1-(2-fluorobenzyl)-1H-indazol-3-yl]-5,5-dimethyl-6-oxo-6,7-dihydro-5H-pyrrolo[2,3-d]pyrimidine-4-carboxamide] | 0.1 | 0.03
